Our source for the IC50 and melting point values is patent US8785460B2, “Tricyclic compounds and use thereof” (Takeda Pharmaceutical Company Limited, priority 2008, dated 2014).

The target of data set [1] is T1, human CRF1 receptor (Homo sapiens, UniProt P34998).
T1 construct: expressed in transfected cells; host or cells: CHO cells (membrane fraction)
T1 sequence (P34998 24-415): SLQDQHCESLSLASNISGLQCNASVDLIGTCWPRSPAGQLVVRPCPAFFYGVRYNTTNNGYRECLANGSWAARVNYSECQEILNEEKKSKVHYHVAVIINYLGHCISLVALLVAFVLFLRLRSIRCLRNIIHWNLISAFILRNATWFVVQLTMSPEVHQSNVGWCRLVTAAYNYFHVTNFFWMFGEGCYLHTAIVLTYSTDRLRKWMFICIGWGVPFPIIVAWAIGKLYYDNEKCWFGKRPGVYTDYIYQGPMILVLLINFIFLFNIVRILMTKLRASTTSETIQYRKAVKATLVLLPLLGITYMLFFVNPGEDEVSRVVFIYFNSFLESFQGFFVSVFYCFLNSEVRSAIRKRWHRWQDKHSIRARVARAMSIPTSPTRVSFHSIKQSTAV
Briefly: Measurement of CRF Binding Inhibitory Rate (receptor binding experiment with 125I-CRF). The settings on record: human CRF1 receptor expressing CHO cellular membrane fraction, 50 pM 125I-CRF, room temperature 1.5 hr, 0.05 nM to 10 μM of compound; read-out: IC50 values (CRF binding inhibition).

For orientation: IC50 means the concentration needed to halve the response being measured. In general, melting point refers to the temperature of the solid-liquid transition.

As to `CCC(NC(=O)C(F)F)c1ccc(Cl)c2nc3n(c12)CCCN3c1c(Cl)cc(Cl)cc1Cl` (stereo not shown) [Example 409, N-{1-[9-Chloro-1-(2,4,6-trichlorophenyl)-1,2,3,4-tetrahydropyrimido[1,2-a]benzimidazol-6-yl]propyl}-2,2-difluoroacetamide], the melting point lay in the range of 211 to 213 °C. Also, in data set [1], the concentration for half-maximal inhibition (IC50) is less than 1000 nM.
`FC(F)(F)COC(c1ccc(Cl)c2nc3n(c12)CCCN3c1ccc(Cl)cc1Cl)C1CC1` (stereo not shown) [Example 455, 9-Chloro-6-[cyclopropyl (2,2,2-trifluoroethoxy)methyl]-1-(2,4-dichlorophenyl)-1,2,3,4-tetrahydropyrimido[1,2-a]benzimidazole] showed a melting point of 143 to 145 °C. Besides, the IC50 in data set [1] is less than 1000 nM.
`CCC(CC)c1ccc(Cl)c2nc3n(c12)CCCCN3c1ncc(C(C)=O)cc1C` [Example 342, 1-{6-[10-Chloro-7-(1-ethylpropyl)-2,3,4,5-tetrahydro-1H-[1,3]diazepino[1,2-a]benzimidazol-1-yl]-5-methylpyridin-3-yl}ethanone] gave a melting point of 142 °C. The concentration for half-maximal inhibition (IC50) in data set [1] was less than 1000 nM.
In the case of `CCC(OCC(F)(F)F)c1ccc(Cl)c2nc3n(c12)CCCN3c1ccc(OC)nc1C` (stereo not shown) [Example 272, 9-Chloro-1-(6-methoxy-2-methylpyridin-3-yl)-6-[1-(2,2,2-trifluoroethoxy)propyl]-1,2,3,4-tetrahydropyrimido[1,2-a]benzimidazole], the melting point lay within 124 to 126 °C. The 50% inhibitory concentration (IC50) in data set [1] is less than 1000 nM.
On to `CCC(OCC1CC1)c1ccc(Cl)c2nc3n(c12)CCCN3c1ccc(Cl)cc1Cl` (stereo not shown) [Example 236, 9-Chloro-6-[1-(cyclopropylmethoxy)propyl]-1-(2,4-dichlorophenyl)-1,2,3,4-tetrahydropyrimido[1,2-a]benzimidazole], for which the melting point lay in the range of 159 to 160 °C. The IC50 in data set [1] is less than 1000 nM.
The like results for `CCN(CC)c1cccc2nc3n(c12)CC(F)(F)CN3c1ccc(Cl)cc1Cl` [Example 231, 1-(2,4-Dichlorophenyl)-N,N-diethyl-3,3-difluoro-1,2,3,4-tetrahydropyrimido[1,2-a]benzimidazol-6-amine] were, in that order, 125 to 127 °C and less than 1000 nM.
The like results for `CCC(CC)c1ccc(Cl)c2nc3n(c12)CCCCN3c1ccc(N(C)C)cc1OC(F)(F)F` [Example 53, 4-[10-Chloro-7-(1-ethylpropyl)-2,3,4,5-tetrahydro-1H-[1,3]diazepino[1,2-a]benzimidazol-1-yl]-N,N-dimethyl-3-(trifluoromethoxy)aniline] were, in that order, 158 to 159 °C and less than 1000 nM.
In turn, `CCC(CO)c1ccc(Cl)c2nc3n(c12)CCCN3c1ccc(Cl)cc1Cl` (stereo not shown) [Example 147, 2-[9-Chloro-1-(2,4-dichlorophenyl)-1,2,3,4-tetrahydropyrimido[1,2-a]benzimidazol-6-yl]butan-1-ol] showed a melting point of 162 to 164 °C. Besides, in data set [1], the IC50 is less than 1000 nM.
As to `CCOc1ccc(N2CCCn3c2nc2c(Cl)ccc(C(OC(F)F)C(F)(F)F)c23)c(C)c1` (stereo not shown) [Example 356, 9-Chloro-6-[1-(difluoromethoxy)-2,2,2-trifluoroethyl]-1-(4-ethoxy-2-methylphenyl)-1,2,3,4-tetrahydropyrimido[1,2-a]benzimidazole], the melting point fell in the range of 179 to 182 °C. Moreover, the IC50 in data set [1] was less than 1000 nM.
Turning to `OC(c1ccc(Cl)c2nc3n(c12)CCCN3c1ccc(Cl)cc1C(F)(F)F)C1CC1` (stereo not shown) [Example 132, {9-Chloro-1-[4-chloro-2-(trifluoromethyl)phenyl]-1,2,3,4-tetrahydropyrimido[1,2-a]benzimidazol-6-yl}(cyclopropyl)methanol], the melting point lay in the range of 224 to 225 °C. The IC50 in data set [1] is less than 1000 nM.
In the case of `CCC(OC(=O)CO)c1ccc(Cl)c2nc3n(c12)CCCN3c1ccc(Cl)cc1Cl` (stereo not shown) [Example 443, 1-[9-Chloro-1-(2,4-dichlorophenyl)-1,2,3,4-tetrahydropyrimido[1,2-a]benzimidazol-6-yl]propyl hydroxyacetate], the melting point is 191 to 193 °C. Besides, in data set [1], the IC50 is less than 1000 nM.
Turning to `Cc1cc(C#N)ccc1N1CCCn2c1nc1c(Cl)ccc(C(OC(F)F)C(F)(F)F)c12` (stereo not shown) [Example 325, 4-{9-chloro-6-[1-(difluoromethoxy)-2,2,2-trifluoroethyl]-3,4-dihydropyrimido[1,2-a]benzimidazol-1(2H)-yl}-3-methylbenzonitrile], the melting point lay within 195 to 197 °C. Moreover, the half-maximal inhibitory concentration (IC50) in data set [1] is less than 1000 nM.
With `CCOC(c1ccc(Cl)c2nc3n(c12)CCCN3c1ccc(Cl)cc1Cl)C(F)(F)F` (stereo not shown) [Example 310, 9-Chloro-1-(2,4-dichlorophenyl)-6-(1-ethoxy-2,2,2-trifluoroethyl)-1,2,3,4-tetrahydropyrimido[1,2-a]benzimidazole], the melting point was in the range of 129 to 131 °C. Also, in data set [1], the IC50 was less than 1000 nM.
As to `CCC(CC)c1ccc(Cl)c2nc3n(c12)CCCN3c1cnc(N(C)C)cc1C` [Example 336, 5-[9-Chloro-6-(1-ethylpropyl)-3,4-dihydropyrimido[1,2-a]benzimidazol-1(2H)-yl]-N,N,4-trimethylpyridin-2-amine], the melting point lay within 228 to 230 °C. Also, in data set [1], the IC50 was less than 1000 nM.
With `CCC(CC)c1ccc(Cl)c2nc3n(c12)CCCCN3c1ccc(C)cc1Br` [Example 31, 1-(2-Bromo-4-methylphenyl)-10-chloro-7-(1-ethylpropyl)-2,3,4,5-tetrahydro-1H-[1,3]diazepino[1,2-a]benzimidazole], the melting point was in the range of 152 to 155 °C. Moreover, the half-maximal inhibitory concentration (IC50) in data set [1] is less than 1000 nM.
`OC(c1ccc(Cl)c2nc3n(c12)CCCN3c1ccc(Cl)cc1Cl)(C1CC1)C1CC1` [Example 108, [9-Chloro-1-(2,4-dichlorophenyl)-1,2,3,4-tetrahydropyrimido[1,2-a]benzimidazol-6-yl](dicyclopropyl)methanol] displayed a melting point of 184 to 186 °C. Also, the IC50 in data set [1] is less than 1000 nM.
The like results for `CCC(OC1CC1)c1ccc(Cl)c2nc3n(c12)CCCN3c1ccc(Cl)cc1Cl` (stereo not shown) [Example 306, 9-Chloro-6-[1-(cyclopropyloxy)propyl]-1-(2,4-dichlorophenyl)-1,2,3,4-tetrahydropyrimido[1,2-a]benzimidazole] were, in that order, 147 to 149 °C and less than 1000 nM.
The compound `CCC(COC)c1ccc(Cl)c2nc3n(c12)CCCN3c1ccc(Cl)cc1Cl` (stereo not shown) [Example 149, 9-Chloro-1-(2,4-dichlorophenyl)-6-[1-(methoxymethyl)propyl]-1,2,3,4-tetrahydropyrimido[1,2-a]benzimidazole] gave a melting point of 130 to 131 °C. Also, the IC50 in data set [1] was less than 1000 nM.
Turning to `CCC(CC)c1ccc(Cl)c2nc3n(c12)CCCCN3c1ccc(SC)cc1C` [Example 44, 10-Chloro-7-(1-ethylpropyl)-1-[2-methyl-4-(methylthio)phenyl]-2,3,4,5-tetrahydro-1H-[1,3]diazepino[1,2-a]benzimidazole], the melting point lay in the range of 113 to 115 °C. Also, the 50% inhibitory concentration (IC50) in data set [1] was less than 1000 nM.
The like results for `CCN(CC)c1ccc(F)c2nc3n(c12)CCCN3c1ccc(Cl)cc1Cl` [Example 365, 1-(2,4-Dichlorophenyl)-N,N-diethyl-9-fluoro-1,2,3,4-tetrahydropyrimido[1,2-a]benzimidazol-6-amine] were, in that order, 170 to 172 °C and less than 1000 nM.
`CCC(OC(C)=O)c1ccc(Cl)c2nc3n(c12)CCCN3c1ccc(C(C)(C)O)cc1Cl` (stereo not shown) [Example 252, 1-{9-Chloro-1-[2-chloro-4-(1-hydroxy-1-methylethyl)phenyl]-1,2,3,4-tetrahydropyrimido[1,2-a]benzimidazol-6-yl}propyl acetate] showed a melting point of 184 to 186 °C. In data set [1], the IC50 was less than 1000 nM.
The like results for `CCC(OC(=O)COC)c1ccc(Cl)c2nc3n(c12)CCCN3c1ccc(Cl)cc1Cl` (stereo not shown) [Example 432, 1-[9-Chloro-1-(2,4-dichlorophenyl)-1,2,3,4-tetrahydropyrimido[1,2-a]benzimidazol-6-yl]propyl methoxyacetate] were, in that order, 156 to 158 °C and less than 1000 nM.
The compound `CCC(OCC(F)(F)F)c1ccc(Cl)c2nc3n(c12)CCCN3c1ccc(Cl)cc1Cl` (stereo not shown) [Example 454, 9-Chloro-1-(2,4-dichlorophenyl)-6-[1-(2,2,2-trifluoroethoxy)propyl]-1,2,3,4-tetrahydropyrimido[1,2-a]benzimidazole] came in with a melting point of 146 to 148 °C. Also, the concentration for half-maximal inhibition (IC50) in data set [1] is less than 1000 nM.
In turn, `CCC(CC)c1ccc(Cl)c2nc3n(c12)CCCCN3c1cnc(Br)c(C)c1` [Example 338, 1-(6-Bromo-5-methylpyridin-3-yl)-10-chloro-7-(1-ethylpropyl)-2,3,4,5-tetrahydro-1H-[1,3]diazepino[1,2-a]benzimidazole] registered a melting point of 137 to 140 °C. Further, the IC50 in data set [1] is less than 1000 nM.
`CCN(CC)c1cccc2nc3n(c12)C=CCCN3c1ccc(Cl)cc1Cl` [Example 362, 1-(2,4-Dichlorophenyl)-N,N-diethyl-2,3-dihydro-1H-[1,3]diazepino[1,2-a]benzimidazol-7-amine] yielded a melting point of 105 to 106 °C. Besides, in data set [1], the 50% inhibitory concentration (IC50) was less than 1000 nM.
`CCC(CC)c1ccc(Cl)c2nc3n(c12)CCCCN3c1ncc(N(C)C)cc1C` [Example 66, 6-[10-Chloro-7-(1-ethylpropyl)-2,3,4,5-tetrahydro-1H-[1,3]diazepino[1,2-a]benzimidazol-1-yl]-N,N,5-trimethylpyridin-3-amine]: the melting point was 188 to 190 °C. In data set [1], the half-maximal inhibitory concentration (IC50) is less than 1000 nM.
